Experimental data as given in publication PMC6413339 (EBioMedicine, 2019).
Where two headings read alike, the source gives them in different places.

What was measured:
[1] = test system: MOLM-14 (ITD, D835Y) cells; experiment: Antiproliferative activity (CellTitre-Blue, 72 h); format: cell-based, human; conditions: 72 h incubation, triplicates, read-out: IC50 (mean ±SD, nM) MOLM-14 (ITD, D835Y)
Protocol: (§1) Cells were seeded into 96-well tissue culture-treated plates at 2.0 × 10^4 cells/mL for up to 24 h. DMSO stock solutions of compounds were serially diluted first in DMSO and subsequently into RPMI before being added to the cell cultures in triplicates, with 10 μM being the highest tested concentration. The plates were incubated for 72 h as above. The CellTitre-Blue assay (Promega, Madison WI) was then added to the cultures and incubated a further 4 h before the fluorescence measured following the manufacturers recommendations. The fluorescence data from compounds were normalized to that DMSO and the resulting data fitted to a non-linear regression equation to obtain IC50 using GraphPad Prism 5.0 Software (La Jolla, CA, USA).

[2] = test system: MOLM-14 (ITD, F691 L) cells; experiment: Antiproliferative activity (CellTitre-Blue, 72 h); format: cell-based, human; conditions: 72 h incubation, triplicates; listed as 7 (HSN431); read-out: IC50 (mean ±SD, nM) MOLM-14 (ITD, F691 L)
Protocol: as §1

[3] = test system: MOLM-14 cells; experiment: Antiproliferative activity (CellTitre-Blue, 72 h); format: cell-based, human; conditions: Homo sapiens, MOLM-14; 72 h incubation, triplicates; read-out: IC50 (mean ±SD, nM) MOLM-14
Protocol: as §1

[4] = test system: MV4–11 cells; experiment: Antiproliferative activity (CellTitre-Blue, 72 h); format: cell-based, human; conditions: Homo sapiens, MV4-11, 72 h, 72 h incubation, triplicates; read-out: IC50 (mean ±SD, nM) MV4–11
Protocol: as §1

[5] = target: T1, FLT3 (Homo sapiens, UniProt P36888); experiment: Cell-free kinase assay, single dose (Reaction Biology, ADP-Glo); format: biochemical; conditions: inhibitor 500 nM; 100 μM ATP; average of duplicate
T1 construct: purchased Invitrogen PV3182
T1 sequence (P36888 564-993 limits assumed): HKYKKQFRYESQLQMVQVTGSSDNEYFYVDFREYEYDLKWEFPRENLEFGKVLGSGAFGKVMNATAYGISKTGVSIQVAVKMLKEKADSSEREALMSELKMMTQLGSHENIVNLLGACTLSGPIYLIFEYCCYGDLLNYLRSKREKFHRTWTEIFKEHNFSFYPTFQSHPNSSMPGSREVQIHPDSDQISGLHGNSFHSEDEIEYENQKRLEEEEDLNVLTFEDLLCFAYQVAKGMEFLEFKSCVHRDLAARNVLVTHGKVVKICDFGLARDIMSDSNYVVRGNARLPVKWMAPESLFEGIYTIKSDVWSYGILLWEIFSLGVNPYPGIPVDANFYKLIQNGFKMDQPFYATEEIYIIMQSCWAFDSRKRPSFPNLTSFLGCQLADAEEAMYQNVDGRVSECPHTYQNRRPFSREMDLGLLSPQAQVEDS
Protocol: Cell-free kinase activity assays were performed at Reaction Biology Corporation. […] DMSO was used as control. […] Experiments were performed in duplicates. The concentrations of kinases and substrates used in the assays are indicated on Table S1. Kinase activity was quantified using the ADP-Glo™ Kinase Assay System (Promega, Madison, WI) following the manufacturer's recommendations.

[6] = target: FLT3-ITD (Homo sapiens, UniProt P36888, ITD); experiment: Cell-free kinase assay, dose-response (Reaction Biology, ADP-Glo); format: biochemical
Protocol: Cell-free kinase activity assays were performed at Reaction Biology Corporation. Briefly, kinases were incubated with substrates, 100 μM ATP and a 3-fold serial dilution of compounds starting at 1 μM. DMSO was used as control. […] Experiments were performed in duplicates. The concentrations of kinases and substrates used in the assays are indicated on Table S1. Kinase activity was quantified using the ADP-Glo™ Kinase Assay System (Promega, Madison, WI) following the manufacturer's recommendations.

[7] = test system: MV4–11 cells; experiment: Trypan blue exclusion viable cell count; format: cell-based, human; conditions: 0.1–10 nM, 72 h
Protocol: To determine the effect of HSN431 on actual leukemia cell counts, MV4–11 cells were seeded into 96 well plates as above and treated with either DMSO vehicle, or HSN431 at the following concentrations: 0.1 nM, 0.2 nM, 0.5 nM, 1 nM, 2 nM, 5 nM, and 10 nM. Cells were incubated for 72 h, and then counted using trypan blue exclusion on the Countess automated cell counter (Life Technologies, Carlsbad, CA). Cell counts were performed in triplicates, and the averages, standard deviations and t-test statistical analyses were graphed using GraphPad Prism software (GraphPad, La Jolla, CA).

[8] = test system: phospho-FLT3; experiment: Western blot, MOLM-14 (ITD, D835Y) cells; format: cell-based, human
[9] = test system: AML cell lines (MV4–11, MOLM-14, MOLM-14 (ITD, D835Y), MOLM-14 (ITD, F691 L)); experiment: Cell cycle analysis (PI flow cytometry); format: cell-based, human; conditions: 24 h and 48 h
Protocol: Cells seeded into T-25 flasks at a density of 8.0 × 10^4 cells/mL and incubated overnight at 37 °C with 5% CO2. Each treatment was performed in triplicates, with three flasks per treatment each with enough volume for both assays at the applicable time points. Following the overnight incubation, cells were treated with either DMSO or different concentrations of HSN431 (as indicated) in triplicates, mixed well and incubated. At each time point (24 and 48 h), aliquots of 1.5 mL of cells were collected from each flask and placed into labeled FACS tubes (for Annexin V apoptosis) or labeled 15 cc conical tubes (for cell cycle) and centrifuged at 300 × g for 5 min. Cells were washed twice with 1× PBS.
For cell cycle, cell pellets were resuspended in 0.5 mL PBS in 15 cc conical tubes and fixed with 4.5 mL of 70% ethanol. Fixed cells were stored at −20 °C until analysis with the Propidium Iodide (PI) Flow Cytometry Kit (cat. no. ab139418, Abcam, Cambridge, MA, USA). Samples were analyzed in duplicates on a FACSCanto II flow cytometer (BD Bioscience, San Jose, CA, USA) and cell cycle distribution was analyzed using the Watson algorithm analysis in FlowJo software (Flowjo, LLC, Ashland, OR).

Q: How did the IC50 ([1]; listed as 7 (HSN431)) turn out when `Cc1ncc(C(=O)Nc2ccc(CN3CCN(C)CC3)c(C(F)(F)F)c2)cc1C#Cc1c(N)ncc2ccc(F)cc12` [Compound 7] was run?
A: The IC50 was 16.6 ± 5.8 nM.

Q: And the IC50 ([1]; Homo sapiens, MOLM-14, 72 h)?
A: Its IC50 is ≤ 15 nM.

Q: And the IC50 [2]?
A: Its IC50 is 3.3 ± 0.3 nM.

Q: What about the IC50 [3] of the same compound?
A: The IC50 was 0.5 ± 0.01 nM.

Q: And the IC50 [4]?
A: Its IC50 is 0.5 ± 0.01 nM.

Q: And the inhibition at 0.5 µM [5]?
A: The inhibition at 0.5 µM was 97%.

Q: And the IC50 [6]?
A: The IC50 was 12.5 nM.

Q: And the “viable MV4–11 cell count” value [7]?
A: The value was “decreased in presence of compound in dose-dependent manner”.

Q: And the “phosphorylation of FLT3” value [8]?
A: Its value is “Inhibition”.

Q: What about the “cells in the sub-G1 phase” value [9] of the same compound?
A: Its value is “accumulation”.

Q: What about the “distribution of cells in the S phase” value [9] of the same compound?
A: The value was “decreases”.

Q: And the “population of cells in the G0/G1 phase” value ([9]; dose- and time-dependent)?
A: The value was “increase”.
